Experimental findings from patent publication US20170107207A1, “AMINOPYRAZOLONE DERIVATIVE” (DAIICHI SANKYO COMPANY, LIMITED, priority 2014, published 2017) are described below.

One test deals with T1, TIP48/TIP49 complex (Homo sapiens, UniProt Q9Y230+Q9Y265).
T1 construct: made in house; host or cells: E. coli
Put plainly: ATPase assay of TIP48/TIP49 complex (ADP-Glo). The test is classed as biochemical. As to conditions: concentration at which the ATPase activity was inhibited by 50%. In outline:
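Recombinant human TIP48 and TIP49 expressed in E. coli (24.5 μg/mL final) were incubated 1.5 h at room temperature with compound (0.0007–200 μM, 2% DMSO) in Tris-HCl pH 7.5 buffer containing MgCl2 and ATP. ADP formed was detected by ADP-Glo luminescence; inhibition came from dose-response curves.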

Test [1] has as its system human lymphoma cell line RAMOS cells. Put plainly: Cell growth inhibition test using RAMOS cell, MTT assay. Format: cell-based. The note with it: 50% growth inhibition concentration. The procedure:
A cell growth inhibition test was carried out by treating human lymphoma cell line RAMOS cells with a test compound for a given period and then counting the number of viable cells by MTT assay or CellTiter-Glo Luminescent Cell Viability Assay (manufactured by Promega Corp.; hereinafter, referred to as ATP assay).
RAMOS cells were suspended in a medium (RPMI1640 medium containing 10% fetal bovine serum). The cell suspension was inoculated at 5000 cells/150 μL/well to a 96-well multiwell plate. The test compound was dissolved in DMSO, and this solution was diluted with medium to prepare a sample solution (DMSO concentration: 1% or lower). Subsequently, test compound-free medium or the sample solution was added thereto at 50 μL/well. The MTT assay was carried out at the day of addition of the sample solution or the DMSO dilution to the cells and after culture at 37° C. for 3 days under 5% CO2 of the cells supplemented with the sample solution or the medium. The MTT assay was carried out as follows.
A 5 mg/mL solution of MTT (3-(4,5-dimethylthiazol-2-yl)-2,5-diphenyltetrazolium bromide, Sigma-Aldrich Corp., M-2128) was prepared using a phosphate buffered solution (Dulbecco's phosphate-buffered saline). This MTT solution was added at 20 μL/well to the plate. Then, the plate was incubated at 37° C. for 4 hours under 5% CO2. The plate was centrifuged at 1200 rpm for 5 minutes, and then, the culture supernatant was removed by suction using a dispenser. DMSO was added thereto at 150 μL/well to dissolve formed formazan. […] from each well was rendered uniform by the stirring of the plate using a plate mixer. The absorbance of each well was measured using a plate reader under conditions involving OD of 540 nm and reference of 660 nm.
The number of viable cells and absorbance (hereinafter, referred to as an OD value) have been confirmed to correlate with each other. Therefore, the rate of cell growth was calculated according to the following expression: Rate of cell growth (T/C %) of a test compound-supplemented well=100×[(B−C)/(A−C)] wherein A represents the OD value (final culture date) of a test compound-free well; B represents the OD value (final culture date) of a test compound-containing well; and C represents the OD value (day of cell inoculation) of a well at the start of contact of the cells with the test compound.
T/C % at each concentration of the test compound was determined. The concentration at which the test compound offered 50% growth rate was calculated as a 50% growth inhibition concentration (GI50) value from the growth rates at two points interpolating 50% and the concentrations, and is shown in Table 56.
In general terms: Tetrazolium assays rely on reduction of a dye to a coloured formazan, in cell work by metabolically active cells.

T1 sequence (Q9Y230 whole entry): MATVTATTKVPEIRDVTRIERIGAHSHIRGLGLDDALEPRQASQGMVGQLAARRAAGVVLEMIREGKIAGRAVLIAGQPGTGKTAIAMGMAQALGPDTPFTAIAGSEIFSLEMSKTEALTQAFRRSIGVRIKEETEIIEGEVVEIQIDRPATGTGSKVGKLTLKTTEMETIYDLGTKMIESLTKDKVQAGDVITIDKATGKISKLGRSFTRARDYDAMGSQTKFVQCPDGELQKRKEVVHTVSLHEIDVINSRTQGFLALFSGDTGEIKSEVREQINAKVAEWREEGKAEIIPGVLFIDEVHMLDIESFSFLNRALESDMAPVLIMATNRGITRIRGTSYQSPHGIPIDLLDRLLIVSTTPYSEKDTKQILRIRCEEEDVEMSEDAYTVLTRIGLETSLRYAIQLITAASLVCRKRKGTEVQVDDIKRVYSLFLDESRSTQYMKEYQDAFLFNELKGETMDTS
T1 sequence (Q9Y265 whole entry): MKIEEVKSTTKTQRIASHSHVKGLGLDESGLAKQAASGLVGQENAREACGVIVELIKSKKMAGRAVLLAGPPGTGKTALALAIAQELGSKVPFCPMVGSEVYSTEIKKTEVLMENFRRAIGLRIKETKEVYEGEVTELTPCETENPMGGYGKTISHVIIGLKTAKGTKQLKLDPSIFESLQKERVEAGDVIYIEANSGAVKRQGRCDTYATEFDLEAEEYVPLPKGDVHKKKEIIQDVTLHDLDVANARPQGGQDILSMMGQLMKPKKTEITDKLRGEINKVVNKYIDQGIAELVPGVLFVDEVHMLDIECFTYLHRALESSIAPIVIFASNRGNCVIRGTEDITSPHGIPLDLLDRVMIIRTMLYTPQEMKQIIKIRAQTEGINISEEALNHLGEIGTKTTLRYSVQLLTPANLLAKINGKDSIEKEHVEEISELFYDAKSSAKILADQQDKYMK

Broadly, the IC50 is the concentration that gives 50% inhibition. Read a high IC50 as weaker potency in that assay. The GI50 is the concentration that inhibits growth by half. Low values mean greater sensitivity of the cells, high ones lower sensitivity of the cells. `COc1ccc(Cl)cc1NC(=O)CC(C)(C)CC(=O)Nc1cn(C)n(-c2ccccc2)c1=O` [Example 136, N-(5-Chloro-2-methoxyphenyl)-3,3-dimethyl-N′-(1-methyl-3-oxo-2-phenyl-2,3-dihydro-1H-pyrazol-4-yl)pentanediamide] displayed an IC50 at TIP48/TIP49 complex of 310 nM. Moreover, the GI50 in test [1] was 1700 nM.
For `COc1ccc(Cl)cc1C(=O)NCC(C)(C)C(O)C(=O)Nc1c(C)n(C)n(-c2ccccc2)c1=O` (stereo not drawn) [Example 112] the same measures were 150 nM and 680 nM.
For `Cc1c(NC(=O)CC(C)(C)CC(=O)Nc2cc(Cl)ccc2OC(C)C)c(=O)n(-c2cccc(C(F)(F)F)c2)n1C` [Example 147, N-(5-Chloro-2-isopropoxy-phenyl)-N′-[1,5-dimethyl-3-oxo-2-[3-(trifluoromethyl)phenyl]pyrazol-4-yl]-3,3-dimethylpentanediamide] the same measures were 81 nM and 40 nM.
On the same counts, the results for `COc1ccc(Cl)cc1C(=O)NCC(C)(C)CC(=O)Nc1c(CCN)n(C)n(-c2ccccc2)c1=O` [Example 21] are 110 nM and 920 nM.
For `CCOc1cc(F)c(Cl)cc1NC(=O)CC(C)(C)CC(=O)Nc1c(COC)n(C)n(-c2ccccc2)c1=O` [Example 119, N-(5-Chloro-2-ethoxy-4-fluorophenyl)-N′-[5-(methoxymethyl)-1-methyl-3-oxo-2-phenyl-2,3-dihydro-1H-pyrazol-4-yl]-3,3-dimethylpentanediamide], the IC50 at TIP48/TIP49 complex worked out at 95 nM. Moreover, in test [1], growth was halved (GI50) at 270 nM.
As for `CCOc1ccc(Cl)cc1C(=O)NCC(C)(C)CC(=O)Nc1c(C)n(C)n(-c2ccccc2)c1=O` [Example 93, 5-Chloro-N-{4-[(1,5-dimethyl-3-oxo-2-phenyl-2,3-dihydro-1H-pyrazol-4-yl)amino]-2,2-dimethyl-4-oxobutyl}-2-ethoxybenzamide], the IC50 against TIP48/TIP49 complex amounted to 25 nM. Moreover, in test [1], the concentration for 50% growth inhibition (GI50) was 55 nM.
For `CCOc1ccc(Cl)cc1C(=O)NCC(C)(C)CC(=O)Nc1c(CCNC(C)C)n(C)n(-c2ccccc2)c1=O` [Example 18, 5-Chloro-N-[4-({5-[2-(isopropylamino)ethyl]-1-methyl-3-oxo-2-phenyl-2,3-dihydro-1H-pyrazol-4-yl}amino)-2,2-dimethyl-4-oxobutyl]-2-ethoxybenzamide] the same measures were 65 nM and 550 nM.
For `CCOc1ccc(Cl)cc1C(=O)NCC(C)(C)CC(=O)Nc1c(CCCCN(C)C)n(C)n(-c2ccccc2)c1=O` [Example 88, 5-Chloro-N-[4-({5-[4-(dimethylamino)butyl]-1-methyl-3-oxo-2-phenyl-2,3-dihydro-1H-pyrazol-4-yl}amino)-2,2-dimethyl-4-oxobutyl]-2-ethoxybenzamide] the same measures were 33 nM and 61 nM.
Regarding `CCOc1ncc(Cl)cc1C(=O)NCC(C)(C)CC(=O)Nc1c(C)n(CCN2CCC2)n(-c2ccccc2)c1=O` [Example 140, N-[4-({1-[2-(Azetidin-1-yl)ethyl]-5-methyl-3-oxo-2-phenyl-2,3-dihydro-1H-pyrazol-4-yl}amino)-2,2-dimethyl-4-oxobutyl]-5-chloro-2-ethoxypyridine-3-carboxamide], the IC50 at TIP48/TIP49 complex amounted to 250 nM. Besides, growth in test [1] was halved (GI50) at 240 nM.
For `Cc1c(NC(=O)CC(C)(C)CNC(=O)c2cc(Cl)cc3c2OC(C)(C)C3)c(=O)n(-c2ccccc2)n1CCO` [Example 139, 5-Chloro-N-(4-{[1-(2-hydroxyethyl)-5-methyl-3-oxo-2-phenyl-2,3-dihydro-1H-pyrazol-4-yl]amino}-2,2-dimethyl-4-oxobutyl)-2,2-dimethyl-3H-benzofuran-7-carboxamide] the same measures were 25 nM and 65 nM.
On the same counts, the results for `CCOc1ccc(Cl)cc1C(=O)NCC(C)(C)CC(=O)Nc1c(CCCN(C)C)n(C)n(-c2ccccc2)c1=O` [Example 63, 5-Chloro-N-[4-({5-[3-(dimethylamino)propyl]-1-methyl-3-oxo-2-phenyl-2,3-dihydro-1H-pyrazol-4-yl}amino)-2,2-dimethyl-4-oxobutyl]-2-ethoxybenzamide] are 29 nM and 100 nM.
On the same counts, the results for `CCOc1ncc(Cl)cc1C(=O)NCC(C)(C)CC(=O)Nc1c(C)n(C)n(-c2ccccn2)c1=O` [Example 150, 5-Chloro-N-(4-{[1,5-dimethyl-3-oxo-2-(2-pyridyl)-2,3-dihydro-1H-pyrazol-4-yl]amino}-2,2-dimethyl-4-oxobutyl)-2-ethoxypyridine-3-carboxamide] are 110 nM and 350 nM.
Turning to `COc1ccc(Cl)cc1NC(=O)CC1(CC(=O)Nc2c(C)n(C)n(-c3ccccc3)c2=O)CCC1` [Example 100, N-(5-Chloro-2-methoxyphenyl)-2-(1-{2-[(1,5-dimethyl-3-oxo-2-phenyl-2,3-dihydro-1H-pyrazol-4-yl)amino]-2-oxoethyl}cyclobutyl)acetamide], the IC50 on TIP48/TIP49 complex was 95 nM. The compound also gave a GI50 in test [1] of 860 nM.
On the same counts, the results for `Cc1ccc2cc(Cl)cc(C(=O)NCC(C)(C)CC(=O)Nc3c(C)n(C)n(-c4ccccc4)c3=O)c2n1` [Example 107, 6-Chloro-N-{4-[(1,5-dimethyl-3-oxo-2-phenyl-2,3-dihydro-1H-pyrazol-4-yl)amino]-2,2-dimethyl-4-oxobutyl}-2-methylquinoline-8-carboxamide] are 66 nM and 190 nM.
On the same counts, the results for `CCOc1ccc(Cl)cc1C(=O)NCC(C)(C)CC(=O)Nc1c(CCN(CC)CC)n(C)n(-c2ccccc2)c1=O` [Example 17, 5-Chloro-N-[4-({5-[2-(diethylamino)ethyl]-1-methyl-3-oxo-2-phenyl-2,3-dihydro-1H-pyrazol-4-yl}amino)-2,2-dimethyl-4-oxobutyl]-2-ethoxybenzamide] are 60 nM and 130 nM.
For `CCOc1ccc(Cl)cc1C(=O)NCC(C)(C)CC(=O)Nc1c(CCNC(=O)OC(C)(C)C)n(C)n(-c2ccccc2)c1=O` [Example 10, tert-Butyl N-{2-[4({4-[(5-chloro-2-ethoxybenzoyl)amino]-3,3-dimethylbutanoyl}amino)-2-methyl-5-oxo-1-phenyl-2,3-dihydro-1H-pyrazol-3-yl]ethyl}carbamate] the same measures were 14 nM and 45 nM.
As to `CCOc1ncc(Cl)cc1NC(=O)CC(C)(C)CC(=O)Nc1c(CCN(C)C)n(C)n(-c2ccccc2)c1=O` [Example 25, N-(5-Chloro-2-ethoxy-3-pyridyl)-N′-{5-[2-(dimethylamino)ethyl]-1-methyl-3-oxo-2-phenyl-2,3-dihydro-1H-pyrazol-4-yl}-3,3-dimethylpentanediamide], the IC50 at TIP48/TIP49 complex was determined as 140 nM. Further, in test [1], the GI50 is 490 nM.
For `COc1cc(F)c(Cl)cc1NC(=O)CC(C)(C)CC(=O)Nc1c(CN(C)C)n(C)n(-c2ccccc2)c1=O` [Example 9, N-(5-Chloro-4-fluoro-2-methoxyphenyl)-N′-{5-[(dimethylamino)methyl]-1-methyl-3-oxo-2-phenyl-2,3-dihydro-1H-pyrazol-4-yl}-3,3-dimethylpentanediamide] the same measures were 210 nM and 480 nM.
On the same counts, the results for `CCOc1ncc(Cl)cc1C(=O)NCC(C)(C)CC(=O)Nc1c(C)n(CCN2CCOCC2)n(-c2ccccc2)c1=O` [Example 142, 5-Chloro-N-(2,2-dimethyl-4-{[5-methyl-1-(2-morpholinoethyl)-3-oxo-2-phenyl-2,3-dihydro-1H-pyrazol-4-yl]amino}-4-oxobutyl)-2-ethoxypyridine-3-carboxamide] are 61 nM and 180 nM.
On the same counts, the results for `COc1cc(F)c(Cl)cc1NC(=O)CC(C)(C)CC(=O)Nc1c(C)[nH]n(-c2ccccc2)c1=O` [Example 144, N-(5-Chloro-4-fluoro-2-methoxyphenyl)-3,3-dimethyl-N′-(5-methyl-3-oxo-2-phenyl-1H-pyrazol-4-yl)pentanediamide] are 1500 nM and 11000 nM.
The compound `CCOc1ncc(Cl)cc1C(=O)NCC(C)(C)CC(=O)Nc1c(C)n(C)n(-c2ccccc2)c1=O` [Example 95] yielded an IC50 at TIP48/TIP49 complex of 59 nM. The compound further showed a GI50 in test [1] of 180 nM.
